One experiment has as its system Phytophthora infestans. In words: whole plant or invertebrate. It is filed as in vivo. To be noted: Phytophthora infestans, in Solanum lycopersicum, 96 h, read-out: % control TLB.
The next experiment has as its system Piricularia oryzae. In words: whole plant or invertebrate. It is filed as in vivo. Particulars: Pyricularia oryzae, read-out: % control RB.
Experiment [1] relates to Pellicularia filamentosa (f. sp. sasiki). The experiment in a line: whole plant or invertebrate. It is filed as in vivo. To be noted: 120 h; read-out: % control RSB.
For experiment [2], the system named is Erysiphe graminis (f. sp. tritici). The experiment in a line: whole plant or invertebrate. It is filed as in vivo. Particulars: Blumeria graminis; read-out: % control WPM.
The subject of experiment [3] is Pseudoperonospora cubensis. The experiment in a line: whole plant or invertebrate. The format is in vivo. Particulars: Pseudoperonospora cubensis, in Cucumis sativus, 168 h; read-out: % control CDM.
The test system of experiment [4] is Puccinia recondita (f. sp. tritici Races PKB and PLD). In words: whole plant or invertebrate. It is filed as in vivo. Particulars: Puccinia recondita, 240 h; read-out: % control WLR.
In a further experiment the test system is Pseudomonas fluorescens. In words: Minimum Inhibitory Concentration Test, alternate (Table 4), Ps.fl. The format is cell-based. To be noted: Pseudomonas fluorescens, TSB, 72 hours, 30° C. On the procedure:
(§1) A 125 μl aliquot of 10,000 ppm test compound in acetone was added to 4.88 ml of TSB to provide a 250 ppm solution. From this solution, 100 μL was transferred to the first row of two microtiter plate columns. Both replicates and five additional compounds were all serially diluted 1:1 to a final concentration of 0.8 ppm in TSB.
(§2) Inoculation was accomplished by diluting a 24 hr Ps fl culture, four mls per 36 mls of phosphate buffer solution. A Dynatech autoinoculator was used to transfer 1.5 μl of this cell suspension to the microtiter plates. The plates were incubated at 30° C. for 3 days before the lowest concentration at which no growth occurs was recorded in the database. The SOK data and MIC test data on Ps.fl, Ps.ae, E.c, and S.a. bacteria and Candida albicans (C.alb), A.n and A.p fungi are listed in Table 4.

Another experiment concerns A.n. The experiment in a line: Minimum Inhibitory Concentration Test, alternate (Table 4), A.n. To be noted: Aspergillus niger, TSB, 72 hours. The format is cell-based, Aspergillus niger. On the procedure: as §1, §2

Data on 16 compounds can be found in US5118681A (priority 1989, dated 1992).

The term MIC denotes the lowest concentration found to suppress growth. A low value points to greater potency.

In brackets after ≈: the same amount, converted by molar mass.

For the compound `CCCCCCCCNC(=O)/C=C\SC(C(=O)NCCCC)C(=O)OCC` (stereo not drawn) [Example 13, N-n-octyl-cis-3-[2-(ethyl-N-n-butylmalonamido)thio]acrylamide], the pest or weed control at 200 ppm turned out to be 80% in the experiment on Phytophthora infestans; 50% with Piricularia oryzae; 0% in experiment [1]; 75% in experiment [2]; 99% in experiment [3]; 50% in experiment [4].
As to `CCCCCCCCNC(=O)/C=C\SC(C(=O)NCC(C)C)C(=O)OCC` (stereo not drawn) [Example 14, N-n-octyl-cis-3-[2-(ethyl-N-(2-methylpropyl)malonamido)thio]acrylamide], the pest or weed control at 200 ppm worked out at 50% with Phytophthora infestans; 0% in the experiment with Piricularia oryzae; 0% in experiment [1]; 75% in experiment [2]; 95% in experiment [3]; 50% in experiment [4].
Take `CCCCCCCCNC(=O)/C=C\SC(C(=O)NCCC)C(=O)OCC` (stereo not drawn) [Example 15, N-n-octyl-cis-3-[2-(ethyl-N-n-propylmalonamido)thio]acrylamide]: the pest or weed control at 200 ppm with Phytophthora infestans came to 89%; in the experiment with Piricularia oryzae it was 40%; in experiment [2] it was 25%; in experiment [3], 100%; in experiment [4], 62%. In addition, the pest or weed control at 5200 ppm in experiment [1] amounted to 25%. Besides, the values for the MIC with Pseudomonas fluorescens and with A.n were above 500 µg/mL and 63 µg/mL (≈ 163 µM), respectively.
Regarding `CCCCCCCCNC(=O)/C=C\SC(C(=O)NC(C)CC)C(=O)OCC` (stereo not drawn) [Example 16, N-n-octyl-cis-3-[2-(ethyl-N-(1-methylpropyl)malonamido)thio]acrylamide], the pest or weed control at 200 ppm with Phytophthora infestans is 47%; in the experiment with Piricularia oryzae it was 40%; in experiment [1], 0%; in experiment [2], 0%; in experiment [3], 42%; in experiment [4], 72%. In addition, the MIC with Pseudomonas fluorescens and against A.n was above 500 µg/mL each time.
With `CCCCCCCCNC(=O)/C=C\SC(C(=O)NCCCCCC)C(=O)OCC` (stereo not drawn) [Example 17, N-n-octyl-cis-3-[2-(ethyl-N-n-hexylmalonamido)thio]acrylamide], the pest or weed control at 200 ppm turned out to be 90% with Phytophthora infestans; 0% with Piricularia oryzae; 0% in experiment [1]; 0% in experiment [2]; 100% in experiment [3]; 75% in experiment [4]. The MIC with Pseudomonas fluorescens and against A.n was above 500 µg/mL throughout.
As for `CCCCCCCCNC(=O)/C=C\SC(C(=O)NCCC)C(=O)NCCC` [Example 19, N-n-octyl-cis-3-[2-(N,N'-di-n-propylmalonodiamido)thio]acrylamide], the pest or weed control at 200 ppm with Phytophthora infestans is 89%; in the experiment on Piricularia oryzae it was 0%; in experiment [1], 0%; in experiment [2], 25%; in experiment [3], 95%; in experiment [4], 62%. In addition, the MIC against Pseudomonas fluorescens and in the experiment with A.n was above 500 µg/mL each time.
Turning to `CCCCCCCCNC(=O)/C=C\SC(C(=O)NCc1ccccc1)C(=O)OCC` (stereo not drawn) [Example 20, N-n-octyl-cis-3-[2-(ethyl-N-benzylmalonamido)thio]acrylamide], the pest or weed control at 200 ppm with Phytophthora infestans was 90%; in the experiment with Piricularia oryzae, 90%; in experiment [1], 0%; in experiment [2], 0%; in experiment [3], 100%; in experiment [4], 75%. In addition, the MIC against Pseudomonas fluorescens and in the experiment with A.n was above 500 µg/mL throughout.
Regarding `CCCCCCCCNC(=O)/C=C\SC(C(=O)Nc1ccccc1Cl)C(=O)OCC` (stereo not drawn) [Example 21, N-n-octyl-cis-3-{2-[ethyl-N-(2-chlorophenyl)malonamido]thio}acrylamide], the pest or weed control at 200 ppm in the experiment with Phytophthora infestans worked out at 97%; in the experiment on Piricularia oryzae, 100%; in experiment [1], 0%; in experiment [2], 62%; in experiment [3] it was 97%; in experiment [4], 75%. The MIC against Pseudomonas fluorescens was above 500 µg/mL; with A.n it was 8 µg/mL (≈ 17.6 µM).
Take `CCCCCCCCNC(=O)/C=C\SC(C(=O)NCc1ccc(Cl)cc1)C(=O)OCC` (stereo not drawn) [Example 22, N-n-octyl-cis-3-{2-[ethyl-N-(4-chlorobenzyl)malonamido]thio}acrylamide]: the pest or weed control at 100 ppm with Phytophthora infestans is 99%. Also, the pest or weed control at 200 ppm was determined as 90% with Piricularia oryzae; 0% in experiment [1]; 37% in experiment [2]; 100% in experiment [3]; 50% in experiment [4]. Besides, the minimal inhibitory concentration (MIC) in the experiment with Pseudomonas fluorescens and in the experiment on A.n was above 500 µg/mL in each case.
Turning to `CCCCCCCCNC(=O)/C=C\SC(C(=O)Nc1cccc(OC)c1)C(=O)OCC` (stereo not drawn) [Example 23, N-n-octyl-cis-3-{2-[ethyl-N-(3-methoxyphenyl)malonamido]thio}acrylamide], the pest or weed control at 200 ppm turned out to be 100% with Phytophthora infestans; 50% in the experiment with Piricularia oryzae; 0% in experiment [1]; 47% in experiment [2]; 92% in experiment [3]; 50% in experiment [4]. Moreover, the MIC with Pseudomonas fluorescens and against A.n was above 500 µg/mL throughout.
Turning to `CCCCCCCCCCCCNC(=O)C(S/C=C\C(=O)NCCCCCCCC)C(=O)OCC` (stereo not drawn) [Example 24, N-n-octyl-cis-3-[2-(ethyl-N-n-dodecylmalonamido)thio]acrylamide], the pest or weed control at 200 ppm amounted to 50% in the experiment on Phytophthora infestans; 0% in the experiment on Piricularia oryzae; 0% in experiment [1]; 0% in experiment [2]; 100% in experiment [3]; 50% in experiment [4]. Besides, the minimal inhibitory concentration (MIC) against Pseudomonas fluorescens was above 500 µg/mL; against A.n it was 250 µg/mL (≈ 488 µM).
Consider `CCCCCCCCNC(=O)/C=C\SC(C(=O)Nc1nccs1)C(=O)OCC` (stereo not drawn) [Example 25, N-n-octyl-cis-3-{2-[ethyl-N-(2-thiazoyl)malonamido]thio}acrylamide], for which the pest or weed control at 200 ppm with Phytophthora infestans came to 80%; with Piricularia oryzae, 0%; in experiment [1] it was 50%; in experiment [2], 0%; in experiment [3], 100%; in experiment [4], 75%. Moreover, the MIC in the experiment with Pseudomonas fluorescens and against A.n was above 500 µg/mL in each case.
For the compound `CCCCCCCCNC(=O)/C=C\SC(C(=O)NCCCCCC#N)C(=O)OCC` (stereo not drawn) [Example 27, N-n-octyl-cis-3-{2-[ethyl-N-(5-cyanopentyl)malonamido]thio}acrylamide], the pest or weed control at 200 ppm with Phytophthora infestans was 100%; with Piricularia oryzae, 98%; in experiment [1], 0%; in experiment [2], 0%; in experiment [3], 100%. The MIC against Pseudomonas fluorescens and in the experiment on A.n was above 500 µg/mL in each case.
With `CCCCCCCCNC(=O)/C=C\SC(C(=O)Nc1ccc(Cl)cc1C#N)C(=O)OCC` (stereo not drawn) [Example 43, N-n-octyl-cis-3-{2-[ethyl-N-(2-cyano-4-chlorophenyl)malonamido]thio}acrylamide], the pest or weed control at 100 ppm amounted to 80% in the experiment with Phytophthora infestans; 100% in the experiment on Piricularia oryzae; 0% in experiment [1]; 50% in experiment [2]; 100% in experiment [3]; 75% in experiment [4].
For `CCCCCCCCNC(=O)/C=C\SC(C(=O)Nc1ccccn1)C(=O)OCC` (stereo not drawn) [Example 44, N-n-octyl-cis-3-{2-[ethyl-N-(2-pyridyl)malonamido]thio}acrylamide], the pest or weed control at 100 ppm in the experiment on Phytophthora infestans was 0%; with Piricularia oryzae, 50%; in experiment [1] it was 0%; in experiment [2], 0%; in experiment [4] it was 75%. The minimal inhibitory concentration (MIC) was above 500 µg/mL in the experiment with Pseudomonas fluorescens and 250 µg/mL (≈ 593 µM) in the experiment with A.n.
Regarding `CCCCCCCCNC(=O)/C=C\SC(C(=O)Nc1cc(Cl)ccc1OC)C(=O)OCC` (stereo not drawn) [Example 46, N-n-octyl-cis-3-{2-[ethyl-N-(2-methoxy-5-chlorophenyl)malonamido]thio}acrylamide], the pest or weed control at 100 ppm in the experiment with Phytophthora infestans amounted to 0%; in the experiment on Piricularia oryzae it was 80%; in experiment [1] it was 50%; in experiment [2], 0%; in experiment [4] it was 50%. The MIC with Pseudomonas fluorescens was above 500 µg/mL; against A.n, 250 µg/mL (≈ 515 µM).
